{"source": "patent US6670187B2", "about": "“Mutant Plk protein and gene encoding the same” (Riken, priority 2000, dated 2003)", "key": {"Plk protein": {"system": "Plk protein", "test": "Western blotting of Plk protein level after geldanamycin treatment", "assay_type": "cell-based, human", "details": "for Sensitivity of Plk to GA: Western blotting", "procedure": "The cells were lysed with TENSV buffer (Schulte, T. W., et al., J. Biol. Chem., 270, 24585-24588, 1995; Hutchison, K. A., et al., J. Biol. Chem., 267, 13952-13957, 1992) at 4° C. with sonication. The lysates were subjected to electrophoresis on an SDS polyacrylamide gel. Proteins were transferred to Immobilon PVDF membrane (Millipore) and immunoblotted with anti-Plk antibody (Zymed and Santa Cruz), anti-Hsp90 antibody (AC88; Stressgen), anti-GST antibody (Santa Cruz), anti-α-tubulin antibody (Amersham), or anti-Raf-1 antibody (Santa Cruz). Detection was performed with an enhanced chemiluminescence reagent (Pierce).\nThe immune complexes were collected by immunoprecipitation using anti-Plk antibody and electrophoresed on an SDS-polyacrylamide gel. […] Aliquots of cell lysates were immunoprecipitated with an anti-Plk or anti-Hsp90 antibody. In the same manner, aliquots of non-immunoprecipitated cell lysates were used for Western blotting.\nAliquots of cell lysates were immunoblotted with the indicated antibodies."}, "U937 cells": {"system": "U937 cells", "test": "Cell viability of geldanamycin-treated U937 cells", "assay_type": "cell-based, human", "details": "100 nM"}, "Hsp90": {"system": "Hsp90", "test": "In vitro binding assay of GST-fused Plk proteins with HL-60 lysate, Hsp90 detected", "parameters": "species or system human", "details": "1 μg GST-fused protein, Western blotting", "procedure": "(§1) The PCR products were cloned into pGEM-T Easy vector (Promega) and nucleotide sequence analysis was carried out by using the dideoxynucleotide chain-termination procedure with an Applied Biosystems automated sequencer. The sequence was confirmed to be identical with a previous report (Golsteyn, R., et al., J. Cell Sci., 107, 1509-1517, 1994). Plk cDNA was inserted into pGEX-2T, and GST-fused Plk was expressed in DH5α with 0.1 mM isopropyl β-D-thiogalacto-pyranoside.\n(§2) For the binding assay, 1 μg of GST-fused proteins was incubated with the lysate of HL-60 cells (1 mg) in TENSV buffer. GST-fused Plk proteins were precipitated with glutathione-agarose (Sigma). Hsp90 or α-tubulin associated with GST-fused Plk proteins was detected by Western blotting using an anti-Hsp90 or anti-α-tubulin antibody.\n(§3) The circle stands for the GST protein, the dotted bar for the kinase domain (residues 53-305) and the black box for the polo-box (residues 410-439). b; GST-fused Plks, expressed in Escherichia coli, were collected with glutathione-agarose, and incubated with the lysate of HL-60 cells. After incubation, GST-fused Plks were precipitated with glutathione-agarose. Hsp90 or α-tubulin associated with GST-fused Plks was detected by Western blotting using an anti-Hsp90 or anti-α-tubulin antibody."}, "α-tubulin": {"system": "α-tubulin", "test": "In vitro binding assay of GST-fused Plk proteins with HL-60 lysate, α-tubulin detected", "parameters": "species or system human", "details": "1 μg GST-fused protein, Western blotting", "procedure": "as §1, §2, §3"}}, "note": "Peptide text beside a SMILES is read from it. * marks the point of attachment. Cbz = O=C(OCc1ccccc1)*"}
{"compound": "CC(C)C[C@@H](C=O)NC(=O)[C@H](CC(C)C)NC(=O)[C@H](CC(C)C)NC(=O)OCc1ccccc1", "note": "[MG132] (Cbz-Leu-Leu-Leu-aldehyde)", "values": [{"measurement": "geldanamycin-induced destabilization of Plk protein", "setting": "Plk protein; co-treatment with proteasome inhibitor", "result": "inhibited"}]}
{"compound": "COC1=C2C[C@@H](C)C[C@H](OC)[C@H](O)[C@@H](C)/C=C(\\C)[C@H](OC(N)=O)[C@@H](OC)/C=C\\C=C(/C)C(=O)NC(=CC1=O)C2=O", "note": "[geldanamycin]", "values": [{"measurement": "Sensitivity of Plk to GA", "setting": "Plk protein; A431 cells, Plk S487G, P509S", "result": "−"}, {"measurement": "Sensitivity of Plk to GA", "setting": "Plk protein; A549 cells, Plk D457G", "result": "−"}, {"measurement": "Sensitivity of Plk to GA", "setting": "Plk protein; HL-60 cells, wt Plk", "result": "+ (Plk protein decreased after GA treatment.)"}, {"measurement": "Sensitivity of Plk to GA", "setting": "Plk protein; HeLa cells, wt Plk", "result": "+ (Plk protein decreased after GA treatment.)"}, {"measurement": "Sensitivity of Plk to GA", "setting": "Plk protein; Hep G2 cells, Plk N496S, R512W", "result": "−"}, {"measurement": "Sensitivity of Plk to GA", "setting": "Plk protein; Jurkat cells, wt Plk", "result": "+ (Plk protein decreased after GA treatment.)"}, {"measurement": "Sensitivity of Plk to GA", "setting": "Plk protein; K562 cells, wt Plk", "result": "+ (Plk protein decreased after GA treatment.)"}, {"measurement": "Sensitivity of Plk to GA", "setting": "Plk protein; MKN74 cells, Plk E569K", "result": "−"}, {"measurement": "Sensitivity of Plk to GA", "setting": "Plk protein; U937 cells, wt Plk", "result": "+ (Plk protein decreased after GA treatment.)"}, {"measurement": "cell viability", "setting": "U937 cells; 12 hours", "result": "without decreasing cell viability"}, {"measurement": "cell viability (majority of cells died)", "setting": "U937 cells; after 2 days", "result": "15.4±3.2", "unit": "%"}]}
{"compound": "K82R: GST-fused kinase negative Plk mutant", "values": [{"measurement": "binding to Hsp90", "setting": "Hsp90", "result": "can bind"}]}
{"compound": "Plk/A431: GST-fused mutant Plk from A431 cells (S487G, P509S in C-terminus)", "values": [{"measurement": "binding to Hsp90", "setting": "Hsp90", "result": "unable to bind"}, {"measurement": "association of tubulin with Plk", "setting": "α-tubulin", "result": "little effect"}]}
{"compound": "Plk/Hep G2: GST-fused mutant Plk from Hep G2 cells (N496S, R512W in C-terminus)", "values": [{"measurement": "binding to Hsp90", "setting": "Hsp90", "result": "unable to bind"}, {"measurement": "association of tubulin with Plk", "setting": "α-tubulin", "result": "little effect"}]}
{"compound": "full-length Plk: GST-fused human full-length wild-type Plk expressed in Escherichia coli", "values": [{"measurement": "binding to Hsp90", "setting": "Hsp90", "result": "can bind"}]}
